Laboratory results: patent US11225503B2, “Crystobactamides” (HELMHOLTZ-ZENTRUM FÜR INFEKTIONSFORSCHUNG GMBH, priority 2013, dated 2022)
Values after ≈ are worked out from the molar mass of the structure shown. Like-named read-outs stand apart in the source and are kept apart here.

Assays:
[1] = test system: Chinese hamster ovary CHO-K1 cells; assay: in vitro; assay type: cell-based
Experimental: Human HCT-116 colon carcinoma cells (CCL-247) were obtained from the American Type Culture Collection (ATCC) and Chinese hamster ovary CHO-K1 cells (ACC-110) were obtained from the German Collection of Microorganisms and Cell Cultures (DSMZ). Both cell lines were cultured under the conditions recommended by the respective depositor. Primary HUVEC (human umbilical vein endothelial cells; single donor) were purchased from PromoCell (Heidelberg, Germany) and cultured in Endothelial Cell Growth Medium (PromoCell) containing the following supplements: 2% FCS, 0.4% ECGS, 0.1 ng/ml EGF, 1 ng/ml bFGF, 90 μg/ml heparin, 1 μg/ml hydrocortisone.
(§1) Cells were seeded at 6×10^3 cells per well of 96-well plates (Corning CellBind®) in complete medium (180 μl) and directly treated with cystobactamides dissolved in methanol in a serial dilution. Compound were tested in duplicate for 5 d, as well as the internal solvent control. After 5 d incubation, 5 mg/ml MTT in PBS (20 μL) was added per well and it was further incubated for 2 h at 37° C.[7] The medium was then discarded and cells were washed with PBS (100 μl) before adding 2-propanol/10N HCl (250:1, v/v; 100 μl) in order to dissolve formazan granules. The absorbance at 570 nm was measured using a microplate reader (EL808, Bio-Tek Instruments Inc.).

[2] = test system: several microorganisms and cell lines; assay: Biological evaluation, summary statements over the MIC and cytotoxicity tests; assay type: cell-based; settings: A. baumannii and P. aeruginosa
Experimental: as §1
(§2) MIC values were determined in microdilution assays. Overnight cultures were diluted in the appropriate growth medium to achieve an inoculum of 10^4-10^6 cfu/mL. Yeasts were grown in Myc medium (1% phytone peptone, 1% glucose, 50 mM HEPES, pH 7.0), S. pneumonia and E. faecalis in tryptic soy broth (TSB: 1.7% peptone casein, 0.3% peptone soymeal, 0.25% glucose, 0.5% NaCl, 0.25% K2HPO4; pH 7.3); M. smegmatis in Middlebrook 7H9 medium supplemented with 10% Middlebrook ADC enrichment and 2 ml/l glycerol). All other listed bacteria were grown in Müller-Hinton broth (0.2% beef infusion solids, 1.75% casein hydrolysate, 0.15% starch, pH 7.4). Cystobactamides and reference drugs were added directly to the cultures in sterile 96-well plates as duplicates and serial dilutions were prepared. Microorganisms were grown on a microplate shaker (750 rpm, 30-37° C., 18-48 h), except S. pneumonia, which was grown at non-shaking conditions (37° C., 5% CO2, 18 h). Growth inhibition was assessed by visual inspection and the MIC was defined as the lowest concentration of compound that inhibited visible growth.

[3] = test system: Pseudomonas aeruginosa PA14; assay: Susceptibility testing, MIC microdilution; assay type: cell-based
Experimental: (§3) Bacterial wildtype strains used in susceptibility assays were either part of our strain collection or purchased from the German Collection of Microorganisms and Cell Cultures (DSMZ) or from the American Type Culture Collection (ATCC). E. coli strain WT^[6] and E. coli mutants were kindly provided by Prof. Dr. P. Heisig, Pharmaceutical Biology and Microbiology, University of Hamburg.
as §2

[4] = test system: Escherichia coli DSM-1116; assay: Susceptibility testing, MIC microdilution; assay type: cell-based; settings: Escherichia coli DSM-1116
Experimental: as §3, §2

[5] = test system: Escherichia coli DSM-26863 (tolC3); assay: Susceptibility testing, MIC microdilution; assay type: cell-based
Experimental: as §3, §2

[6] = test system: E. coli strain WT III (marR Δ74 bp); assay: Susceptibility of mutant E. coli strains, MIC; assay type: cell-based; settings: for MIC, in words: E. coli WT III; for factor of MIC increase: E. coli WT III compared to wildtype E. coli DSM-1116
Experimental: as §3, §2

DNA/gyrase complex = DNA/gyrase complex (Escherichia coli, UniProt P0AES4+P0AES6); settings: cystobactamide D 18 μM, ciprofloxacin 1 μM
Experimental: (B) Here, standard gyrase reactions were inhibited using a constant amount of cystobactamide D and titrated with increasing amounts of ATP. If ATP and cystobactamide D would compete for binding at the ATP binding pocket on the gyrase GyrB subunit, increasing amounts of ATP would lead to the formation of supercoiled plasmid in the assay.
To test if cystobactamides stabilize the covalent complex between DNA gyrase and the nicked DNA substrate, proteinase K linearization assay were performed (see a). […] To detect linearized plasmid bands the relaxed plasmid was digested by the single-cutting restriction enzyme Ndel.

[7] = test system: E. coli strain WT-3.2 (single-step gyrA mutation); assay: Susceptibility of mutant E. coli strains, MIC; assay type: cell-based; settings: strain WT-3.2, single-step gyrA mutation
Description: (§4) Cystobactamides were screened using a panel of E. coli strains with typical mutations in gyrA and parC genes (Table 11).
as §3, §2

[8] = test system: E. coli strain WT-4 M2.1 (parC mutation); assay: Susceptibility of mutant E. coli strains, MIC; assay type: cell-based
Description: as §4, §3, §2

[9] = test system: E. coli strain MI (single-step gyrA mutation); assay: Susceptibility of mutant E. coli strains, MIC; assay type: cell-based; settings: strain MI, single-step gyrA mutation
Description: as §4, §3, §2

[10] = test system: Staphylococcus aureus ATCC29213; assay: Susceptibility testing, MIC microdilution; assay type: cell-based; settings: read-out: MIC
Experimental: as §3, §2

[11] = test system: Acinetobacter baumannii DSM-30008; assay: Susceptibility testing, MIC microdilution; assay type: cell-based; settings: DSM30008; Acinetobacter baumannii DSM-30008; read-out: MIC
Experimental: as §3, §2

[12] = test system: Burkholderia cenocepacia DSM-16553; assay: Susceptibility testing, MIC microdilution; assay type: cell-based; settings: DSM16553; Burkholderia cenocepacia DSM-16553; read-out: MIC
Experimental: as §3, §2

[13] = test system: Enterococcus faecalis ATCC29212; assay: Susceptibility testing, MIC microdilution; assay type: cell-based; settings: read-out: MIC
Experimental: as §3, §2

[14] = test system: Klebsiella pneumoniae DSM-30104; assay: Susceptibility testing, MIC microdilution; assay type: cell-based; settings: DSM30104; Klebsiella pneumoniae DSM-30104; read-out: MIC
Experimental: as §3, §2

Bacillus subtilis DSM-10 = assay: Susceptibility testing, MIC microdilution; assay type: cell-based; settings: DSM10; Bacillus subtilis DSM-10; read-out: MIC
Experimental: as §3, §2

[15] = test system: Escherichia coli DSM-12242 (NAL^R); assay: Susceptibility testing, MIC microdilution; assay type: cell-based; settings: Escherichia coli, DSM12242
Experimental: as §3, §2

[16] = test system: Micrococcus luteus DSM-1790; assay: Susceptibility testing, MIC microdilution; assay type: cell-based; settings: DSM1790; Micrococcus luteus DSM-1790; read-out: MIC
Experimental: as §3, §2

[17] = test system: Candida albicans DSM-1665; assay: Susceptibility testing, MIC microdilution; assay type: cell-based; settings: DSM1665; Candida albicans DSM-1665; read-out: MIC
Experimental: as §3, §2

Pichia anomala DSM-6766 = assay: Susceptibility testing, MIC microdilution; assay type: cell-based; settings: Hansenula anomala, DSM6766; Pichia anomala DSM-6766; read-out: MIC
Experimental: as §3, §2

[18] = test system: Escherichia coli ATCC25922; assay: Susceptibility testing, MIC microdilution; assay type: cell-based; settings: read-out: MIC
Experimental: as §3, §2

[19] = test system: Pseudomonas aeruginosa ATCC27853; assay: Susceptibility testing, MIC microdilution; assay type: cell-based; settings: read-out: MIC
Experimental: as §3, §2

[20] = test system: Streptococcus pneumoniae DSM-20566; assay: Susceptibility testing, MIC microdilution; assay type: cell-based; settings: DSM20566; Streptococcus pneumoniae DSM-20566; read-out: MIC
Experimental: as §3, §2

[21] = test system: Chromobacterium violaceum DSM-30191; assay: Susceptibility testing, MIC microdilution; assay type: cell-based; settings: DSM30191; Chromobacterium violaceum DSM-30191; read-out: MIC
Experimental: as §3, §2

[22] = test system: Enterobacter aerogenes DSM-30053; assay: Susceptibility testing, MIC microdilution; assay type: cell-based; settings: Klebsiella aerogenes, DSM30053; Enterobacter aerogenes DSM-30053; read-out: MIC
Experimental: as §3, §2

[23] = test system: Mycobacterium smegmatis mc^2155 ATCC700084; assay: Susceptibility testing, MIC microdilution; assay type: cell-based; settings: Mycolicibacterium smegmatis, ATCC700084|MC^2155; Mycobacterium smegmatis mc^2155 ATCC700084; read-out: MIC
Experimental: as §3, §2

[24] = test system: Escherichia coli ATCC35218; assay: Susceptibility testing, MIC microdilution; assay type: cell-based; settings: read-out: MIC
Experimental: as §3, §2

E. coli WT = assay: Susceptibility of mutant E. coli strains, MIC; assay type: cell-based; settings: Escherichia coli
Description: as §4
High-level quinolone resistance often results from a combination of several target site mutations and altered efflux mechanisms. […] This, in turn, leads to overproduction of MarA and AcrAB and overexpression of the AcrAB efflux pump is associated with the MAR (multiple antibiotic resistance) phenotype.^[5]
as §3, §2

[25] = Escherichia coli DSM-26863 (tolC3)
[26] = Escherichia coli WTIII [marRΔ74bp]

DNA/gyrase complex, sequence (P0AES4 whole entry, one chain of several): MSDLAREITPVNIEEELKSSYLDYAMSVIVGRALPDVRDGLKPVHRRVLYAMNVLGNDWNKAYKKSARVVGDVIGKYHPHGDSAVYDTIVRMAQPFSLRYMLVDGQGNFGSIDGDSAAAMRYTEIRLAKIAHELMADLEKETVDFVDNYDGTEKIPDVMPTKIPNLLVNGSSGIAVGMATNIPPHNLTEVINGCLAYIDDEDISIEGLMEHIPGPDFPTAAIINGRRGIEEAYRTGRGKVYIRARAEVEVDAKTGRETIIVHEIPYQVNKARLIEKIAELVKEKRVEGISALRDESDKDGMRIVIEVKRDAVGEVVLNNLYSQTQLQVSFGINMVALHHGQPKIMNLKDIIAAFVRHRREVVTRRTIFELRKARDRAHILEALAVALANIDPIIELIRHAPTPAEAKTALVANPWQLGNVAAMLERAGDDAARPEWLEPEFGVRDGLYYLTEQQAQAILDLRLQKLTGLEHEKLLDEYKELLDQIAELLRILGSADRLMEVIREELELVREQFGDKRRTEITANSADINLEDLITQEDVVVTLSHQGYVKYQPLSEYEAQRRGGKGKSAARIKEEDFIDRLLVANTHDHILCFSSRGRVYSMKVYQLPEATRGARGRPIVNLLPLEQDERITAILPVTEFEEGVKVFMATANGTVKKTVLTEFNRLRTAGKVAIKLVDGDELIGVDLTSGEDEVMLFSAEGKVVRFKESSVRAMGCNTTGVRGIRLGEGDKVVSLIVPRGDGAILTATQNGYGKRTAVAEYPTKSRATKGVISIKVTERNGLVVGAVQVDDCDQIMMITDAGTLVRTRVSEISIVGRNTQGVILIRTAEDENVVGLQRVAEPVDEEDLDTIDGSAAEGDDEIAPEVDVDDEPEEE

Structure (SMILES): COC(C(N)=O)C(NC(=O)c1ccc(NC(=O)c2ccc([N+](=O)[O-])cc2)cc1)C(=O)Nc1ccc(C(=O)Nc2ccc(C(=O)Nc3ccc(C(=O)O)cc3)c(O)c2OC(C)C)cc1 (centres unmarked) [cystobactamide F]
- GI50 [1]: > 111 µM
- inhibition of pathogenic Gram-negative strains A. baumannii and P. aeruginosa (MIC range) [2]: low μg/ml range
- MIC [3]: 3.4 µg/mL (≈ 3.95 µM)
- MIC [4]: 0.4 µg/mL (≈ 0.464 µM)
- MIC [5, 25]: 0.4 µg/mL (≈ 0.464 µM)
- MIC, in words [6]: in the μg/ml range
- factor of MIC increase [6]: 2
- MIC [6, 26]: 0.9 µg/mL (≈ 1.04 µM)

Structure (SMILES): O=C(O)c1cn(C2CC2)c2cc(N3CCNCC3)c(F)cc2c1=O [ciprofloxacin, reference compound]
- formation of linearized plasmid after proteinase K treatment (DNA/gyrase complex): formation of linearized plasmid
- factor of MIC increase [7]: ~30
- MIC ([8]; Escherichia coli): 0.025 µg/mL (≈ 0.0754 µM)
- increase of the MIC ([8]; strain WT-4 M2.1, parC mutation): two-fold increase
- factor of MIC increase [9]: ~30
- MIC [10]: 0.1 µg/mL (≈ 0.302 µM)
- MIC [11]: 0.2 µg/mL (≈ 0.604 µM)
- MIC [12]: 6.4 µg/mL (≈ 19.3 µM)
- MIC [13]: 0.8 µg/mL (≈ 2.41 µM)
- MIC [14]: 0.025 µg/mL (≈ 0.0754 µM)
- MIC (Bacillus subtilis DSM-10): 0.1 µg/mL (≈ 0.302 µM)
- MIC [15]: 0.05 µg/mL (≈ 0.151 µM)
- MIC [16]: 1.6 µg/mL (≈ 4.83 µM)
- MIC ([3]; read-out: MIC): 0.1 µg/mL (≈ 0.302 µM)
- MIC [17]: > 6.4 µg/mL
- MIC (Pichia anomala DSM-6766): > 6.4 µg/mL
- MIC ([4]; DSM1116, read-out: MIC): 0.006 µg/mL (≈ 0.0181 µM)
- MIC ([5]; Escherichia coli, DSM26863): ≤ 0.003 µg/mL
- MIC [18]: ≤ 0.003 µg/mL
- MIC [19]: 0.1 µg/mL (≈ 0.302 µM)
- MIC [20]: 1.6 µg/mL (≈ 4.83 µM)
- MIC [21]: 0.006 µg/mL (≈ 0.0181 µM)
- MIC [22]: 0.2 µg/mL (≈ 0.604 µM)
- MIC [23]: 0.4 µg/mL (≈ 1.21 µM)
- MIC [24]: 0.006 µg/mL (≈ 0.0181 µM)
- factor of MIC increase [6]: ~10
- factor of reduced susceptibility ([6]; E. coli WT III cp. E. coli WT): ca. 4
- MIC ([6]; Escherichia coli): 0.05 µg/mL (≈ 0.151 µM)
- MIC (E. coli WT): 0.013 µg/mL

Structure (SMILES): COc1cc(C(=O)O)ccc1NC(=O)c1ccc(NC(=O)c2ccc(NC(=O)C(NC(=O)c3ccc(NC(=O)c4ccc([N+](=O)[O-])cc4)cc3)C(OC)C(N)=O)cc2)c(OC(C)C)c1O (centres unmarked) [cystobactamide G]
- GI50 [1]: 37 to 111 µM
- inhibition of pathogenic Gram-negative strains A. baumannii and P. aeruginosa (MIC range) [2]: low μg/ml range
- MIC [3]: 7.1 µg/mL (≈ 7.96 µM)
- MIC [4]: 0.9 µg/mL (≈ 1.01 µM)
- MIC [5, 25]: 0.9 µg/mL (≈ 1.01 µM)
- MIC, in words [6]: in the μg/ml range
- MIC [6, 26]: 3.6 µg/mL (≈ 4.04 µM)
